Tests used:
IL-6 [1] = assay: IL-6 secretion of BEAS-2B cells treated with Diesel Particulate Matter; type: cell-based, human; settings: for IL-6 / IL-6 % of PM + DMSO: 24 h
Description: (§1) The human bronchial epithelial cell line BEAS-2B was from ATCC (American Type Culture Collection, Manassas, Va.) and cultured in Bronchial Epithelial cell Growth Medium (BEGM, Lonza, Wakersville, Md.) in CellBIND® surface plastic flasks (Corning Inc., Corning, N.Y.). The adenocarcinomic human alveolar basal epithelial A549 cell line was obtained from ATCC and cultured in Kaighn's Modification of Ham's F-12 Medium (F-12K medium) (Life Technologies, USA), supplemented with 10% FBS (Sigma, Saint-Louis, Mo.). These cells were cultured at 37° C. in a humidified atmosphere containing 5% CO2.
(§2) BEAS-2B cells were seeded in 12-well CellBIND® surface culture plates (Corning Inc.) at 3 to 4×10^5 cells per well. A549 cells were seeded in 12-well plates at 2×10^5 cells per well.
(§3) Diesel Particulate Matter (Standard Reference Material SRM 1650b, National Institute of Standards & Technology, NIST, Gaithersburg, Md.) at 80 mg/ml DMSO (100%) were sonicated for 5 min and thereafter diluted 400 fold in medium. This dilution was twofold further diluted for the assay.
(§4) After 24 h, cells were treated with the diluted Diesel Particulate Matter at 100 μg/ml and in the presence of different concentrations of Withania somnifera extracts, other plant extracts, fractions and compounds as indicated. The final DSMO concentrations were 0.175%.
(§5) Untreated cells or cells treated with 0.175% DMSO were used as controls. After 24 h, cell supernatants were collected.
(§6) The concentrations of IL-6 and IL-8 in the supernatants were determined by Luminex kits (BIO-RAD Laboratories, Hercules, Calif.) and used in the LiquiChip Workstation IS 200 (Qiagen, Hilden, Germany). The data were evaluated with the LiquiChip Analyser software (Qiagen).

IL-6 [2] = assay: IL-6 secretion of A549 cells treated with Diesel Particulate Matter; type: cell-based, human; settings: for effect on PM-induced IL-6 secretion (in words): A549; for IL-6 / IL-6 % of PM + DMSO: Table 5, A549, 24 h
Description: as §1, §2, §3, §4, §5, §6

IL-8 = IL-8 secretion of A549 cells treated with Diesel Particulate Matter; type: cell-based, human; settings: for IL-8 / IL-8 % of PM + DMSO: Table 7, A549, 24 h
Description: as §1, §2, §3, §4, §5, §6

MCP-1 = MCP-1 secretion of A549 cells treated with Diesel Particulate Matter; type: cell-based, human; settings: for effect on PM-induced MCP-1 secretion (in words): A549; for MCP-1 / MCP-1 % of PM + DMSO: Table 9, A549, 24 h
Description: The human bronchial epithelial cell line BEAS-2B was from ATCC (American Type Culture Collection, Manassas, Va.) and cultured in Bronchial Epithelial cell Growth Medium (BEGM, Lonza, Wakersville, Md.) in CellBIND® surface plastic flasks (Corning Inc., Corning, N.Y.). The adenocarcinomic human alveolar basal epithelial A549 cell line was obtained from ATCC and cultured in Kaighn's Modification of Ham's F-12 Medium (F-12K medium) (Life Technologies, USA), supplemented with 10% FBS (Sigma, Saint-Louis, Mo.). These cells were cultured at 37° C. in a humidified atmosphere containing 5% CO2. BEAS-2B cells were seeded in 12-well CellBIND® surface culture plates (Corning Inc.) at 3 to 4×10^5 cells per well. A549 cells were seeded in 12-well plates at 2×10^5 cells per well. […] This dilution was twofold further diluted for the assay. After 24 h, cells were treated with the diluted Diesel Particulate Matter at 100 μg/ml and in the presence of different concentrations of Withania somnifera extracts, other plant extracts, fractions and compounds as indicated. The final DSMO concentrations were 0.175%. Untreated cells or cells treated with 0.175% DMSO were used as controls. After 24 h, cell supernatants were collected.

PGE2 = PGE2 secretion of BEAS-2B cells treated with Diesel Particulate Matter; type: cell-based, human; settings: for effect on PGE2 secretion compared to PM with DMSO (in words): PM-treated BEAS-2B; for PGE2 / PGE2 % of PM + DMSO: Table 10, BEAS-2B, 24 h
Description: as §1, §2, §3, §4, §5
Secreted PGE2 was determined by Enzyme Immuno Assay (EIA) (Cayman Chemicals, Ann Harbor, […].).

Nrf2 = assay: Luciferase reporter assay using H411E-ARE8L cells (Nrf2 activation)
Protocol: Luciferase Reporter Assay Using H411E-ARE8L Cells:
The medium for H411E-ARE8L cells was Dulbecco's Modified Eagle Medium (DMEM) high glucose containing heat inactivated 10% fetal bovine Serum (FBS). The media was exchanged every two to three-days. The DMEM assay medium used charcoal treated FBS (DMEMct). The transactivation assay was performed in 96 well plates. The plates were seeded with approximately 40′000 cells per well in 100 μl DMEMct and incubated over night at 37° C. Then the test compounds were diluted in DMEDct and given to the cells as described below. The cells were incubated for at least further 16 h at 37° C. and 5% CO2. Cells were equilibrated to room temperature. Lysis of the cells was done by adding 100 μL lysis solution, Steady-Glo© luciferase buffer according to the manufacturer (Promega) containing 0.5 mM DTT per well and incubated for 10 min at room temperature with gentle shaking. The luminescence was measured within 2 hours after incubation on a luminometer (Mithras, Berthold Technologies).
The negative control were cells in 0.5% DMSO.
All extracts, fractions and pure compounds were tested for concentrations that induce toxicity. Non-toxic concentrations were then selected for treating cells as describes in the methods section.

BEAS-2B cells = assay: Toxicity / cell survival of BEAS-2B cells; type: cell-based, human; settings: at concentrations higher than 0.3 μg/ml
Protocol: (§7) Cell survival assays of the BEAS-2B and A549 cells were performed with AlamarBlue® Cell Viability Reagent (ThermoFisher Scientific) according to the protocol of the manufacturer. Non-toxic concentrations of the extracts, fractions and single compounds were selected for the assays.

A549 cells = assay: Toxicity / cell survival of A549 cells; type: cell-based, human; settings: concentrations higher than 0.31 μg/ml
Protocol: as §7

[3] = Table 3, 10 μg/ml + PM 100 μg/ml
[4] = Table 3, 5 μg/ml + PM 100 μg/ml
[5] = Table 3, 0.3125 μg/ml + PM 100 μg/ml

12-deoxywithastramonolide
IL-6 (IL-6 [1]; [3]): 51.9 pg/mL
IL-6 % of PM + DMSO (IL-6 [1]; [3]): 207%
effect on PM-induced IL-6 secretion (in words) (IL-6 [2]): decrease
IL-6 (IL-6 [2]; 10 μg/ml + PM 100 μg/ml): 9.5 pg/mL
IL-6 % of PM + DMSO (IL-6 [2]; 10 μg/ml + PM 100 μg/ml): 75%
effect on IL-8 secretion (in words) (IL-8; A549, PM-induced): significant inhibition
IL-8 (IL-8; 10 μg/ml + PM 100 μg/ml): 208.3 pg/mL
IL-8 % of PM + DMSO (IL-8; 10 μg/ml + PM 100 μg/ml): 69%
effect on PM-induced MCP-1 secretion (in words) (MCP-1): significant decrease
MCP-1 (MCP-1; 10 μg/ml + PM 100 μg/ml): 646.3 pg/mL
MCP-1 % of PM + DMSO (MCP-1; 10 μg/ml + PM 100 μg/ml): 74%
effect on PGE2 secretion compared to PM with DMSO (in words) (PGE2): significant decrease
PGE2 (PGE2; 10 μg/ml + PM 100 μg/ml): 28.3 pg/mL
PGE2 % of PM + DMSO (PGE2; 10 μg/ml + PM 100 μg/ml): 74%
Nrf-2 activity, Average (Nrf2; Conc. final 22.73 μg/ml): 33869 relative units of luciferase fluorescence
Nrf-2 activity, Normalized data (Nrf2; Conc. final 22.73 μg/ml, R-sulforaphane set to 1.0, DMSO 0): 1.1701

CO[C@H]1CC(=O)[C@]2(C)[C@H]3CC[C@]4(C)[C@@H]([C@H](C)[C@H]5CC(C)=C(CO)C(=O)O5)CC[C@H]4[C@@H]3C[C@H]3O[C@]32[C@H]1O [Quresimine A, quresimine A]
IL-6 (IL-6 [1]; [4]): 23.5 pg/mL
IL-6 % of PM + DMSO (IL-6 [1]; [4]): 94%
effect on PM-induced IL-6 secretion (in words) (IL-6 [2]): decrease
IL-6 (IL-6 [2]; 5 μg/ml + PM 100 μg/ml): 9.5 pg/mL
IL-6 % of PM + DMSO (IL-6 [2]; 5 μg/ml + PM 100 μg/ml): 75%
effect on IL-8 secretion (in words) (IL-8; A549, PM-induced): significant inhibition
IL-8 (IL-8; 5 μg/ml + PM 100 μg/ml): 242 pg/mL
IL-8 % of PM + DMSO (IL-8; 5 μg/ml + PM 100 μg/ml): 80%
effect on PM-induced MCP-1 secretion (in words) (MCP-1): low, but non-significant decrease
MCP-1 (MCP-1; 5 μg/ml + PM 100 μg/ml): 796.7 pg/mL
MCP-1 % of PM + DMSO (MCP-1; 5 μg/ml + PM 100 μg/ml): 92%
effect on PGE2 secretion compared to PM with DMSO (in words) (PGE2): borderline
PGE2 (PGE2; 5 μg/ml + PM 100 μg/ml): 33.2 pg/mL
PGE2 % of PM + DMSO (PGE2; 5 μg/ml + PM 100 μg/ml): 87%

CC1=C(CO)C(=O)O[C@@H]([C@@H](C)[C@H]2CC[C@H]3[C@@H]4C[C@H]5O[C@]56[C@@H](O)C=CC(=O)[C@]6(C)[C@H]4CC[C@]23C)C1 [Withaferin A, withaferin A]
toxicity to BEAS-2B cells (BEAS-2B cells): toxic
toxicity to A549 cells (A549 cells): toxic
effect on PM-induced IL-6 secretion (in words) (IL-6 [1]; 0.3 μg/ml): lowered
IL-6 (IL-6 [1]; [5]): 19.4 pg/mL
IL-6 % of PM + DMSO (IL-6 [1]; [5]): 77%
effect on PM-induced IL-6 secretion (in words) (IL-6 [2]): decrease
IL-6 (IL-6 [2]; 0.3125 μg/ml + PM 100 μg/ml): 3.5 pg/mL
IL-6 % of PM + DMSO (IL-6 [2]; 0.3125 μg/ml + PM 100 μg/ml): 29%
inhibition of IL-8 secretion (in words) (IL-8; A549, PM-induced, 0.31 μg/ml): highest inhibition of the pure compounds
IL-8 (IL-8; 0.3125 μg/ml + PM 100 μg/ml): 106.7 pg/mL
IL-8 % of PM + DMSO (IL-8; 0.3125 μg/ml + PM 100 μg/ml): 39%
effect on PM-induced MCP-1 secretion (in words) (MCP-1): significant decrease
MCP-1 (MCP-1; 0.3125 μg/ml + PM 100 μg/ml): 632 pg/mL
MCP-1 % of PM + DMSO (MCP-1; 0.3125 μg/ml + PM 100 μg/ml): 66%
PGE2 (PGE2; 0.3125 μg/ml + PM 100 μg/ml): 33.2 pg/mL
PGE2 % of PM + DMSO (PGE2; 0.3125 μg/ml + PM 100 μg/ml): 87%
Nrf-2 activity, Average (Nrf2; Conc. final 0.28 μg/ml): 32053 relative units of luciferase fluorescence
